pEC50: −log10 of the molar value.
Assays:
[1] = target: T1, histidine-tagged recombinant human ACAT1 (Homo sapiens, UniProt P35610, M1L); assay: Steroid (pregnenolone/DHEA/E2) esterification in mixed micelles, ACAT1 as enzyme source; type: biochemical; settings: for activation of pregnenolone esterification by sterol: sterol at 0.32 mM, 1 μM [3H]-pregnenolone; for ACAT1 substrate activity: 1 μM [3H]-steroid
T1 construct: hACAT-1 cDNA (nucleotide residues 1397-3046, a total of 550 amino acids); made in house; partially purified on a nickel column
T1 sequence (P35610 1-550 M1L): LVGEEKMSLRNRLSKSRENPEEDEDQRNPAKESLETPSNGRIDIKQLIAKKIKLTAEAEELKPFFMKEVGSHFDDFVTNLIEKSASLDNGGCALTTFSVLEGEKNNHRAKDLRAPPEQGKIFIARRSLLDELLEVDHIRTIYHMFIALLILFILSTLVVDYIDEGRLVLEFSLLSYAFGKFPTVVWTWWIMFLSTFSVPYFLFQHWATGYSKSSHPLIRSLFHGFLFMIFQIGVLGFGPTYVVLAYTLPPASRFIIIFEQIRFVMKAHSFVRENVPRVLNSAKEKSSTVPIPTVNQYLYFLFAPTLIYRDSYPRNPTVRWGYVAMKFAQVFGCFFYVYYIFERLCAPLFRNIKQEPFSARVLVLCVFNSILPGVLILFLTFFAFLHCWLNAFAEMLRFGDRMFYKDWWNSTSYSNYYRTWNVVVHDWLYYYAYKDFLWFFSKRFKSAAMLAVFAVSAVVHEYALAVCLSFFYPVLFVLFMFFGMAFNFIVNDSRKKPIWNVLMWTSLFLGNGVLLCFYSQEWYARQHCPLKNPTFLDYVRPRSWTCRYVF
Source text: (§1) The method of the present invention was developed in experiments using a mixed micelle enzyme assay system. […] A candidate ACAT inhibitor is an allosteric inhibitor if it is shown in the method of the present invention to inhibit cholesterol-dependent pregnenolone esterification but not to inhibit the basal pregnenolone esterification when cholesterol is absent in the assay mixture. […] In the assay system of the present invention, the source of ACAT was histidine-tagged recombinant human ACAT1 or human ACAT2, stably expressed in Chinese hamster ovary (CHO) cells that lack endogenous ACAT activity. However, one of skill in the art could employ other suitable mammalian cell systems as needed. The enzyme preparations used in the present method were partially purified through the use of nickel column chromatography, as described previously (Liu et al. 2005. Biochem. J. 391:389-397), using cells that stably expressing histidine-tagged recombinant human ACAT1 or human ACAT2 as the enzyme source.
(§2) In developing the method of the present invention, a series of experiments was performed. Pregnenolone is one compound that contains the classical A, B, C, D steroid rings as well as a 3 beta-OH moiety. Based on its structure, pregnenolone may be an ACAT substrate. However, this possibility had not previously been tested experimentally. In the present invention, the activity of pregnenolone was tested by using radiolabeled pregnenolone ([^3H]-pregnenolone) in a mixed micelle enzyme assay mixture that contained the detergent taurocholate (or CHAPS), phosphatidylcholine, and oleyl-coenzyme A bound to bovine serum albumin (BSA). The enzyme used was histidine-tagged human ACAT1 or human ACAT2. The esterification of pregnenolone (i.e., formation of pregnenolone oleate) was monitored by performing lipid extraction to isolate [^3H]-pregnenolone oleate and [^3H]-pregnenolone. [^3H]-pregnenolone oleate was then separated from [^3H]-pregnenolone by using conventional thin-layer chromatography. Levels of [^3H]-pregnenolone oleate formed was measured using a scintillation counter. […] Thus, using ACAT1 as the enzyme source, the esterification of DHEA was examined (FIG. 1C).
A pregnenolone substrate saturation curve was then constructed, with or without addition of cholesterol to the assay mixture, using ACAT1 as the enzyme source (FIG. 2A). […] Then, a DHEA substrate saturation curve was constructed, with cholesterol present.
Further experiments were performed to examine the effect of adding various non-oxysterols, at a concentration of 0.32 mM, on pregnenolone esterification in vitro, with ACAT1 as the enzyme source.
(§3) To assay the enzyme, the pregnenolone/detergent/PC micelles and the cholesterol/detergent/PC micelles were prepared individually as follows: the radiolabeled pregnenolone/PC mixture or the cholesterol/PC mixture was prepared as described previously (Shi et al. 1989. Biochim. Biophys. Acta 982:187-195) and lyophilized to remove residual organic solvents. After lyophilization, the detergent sodium taurocholate (or other detergent such as CHAPS) in Buffer A was added to reach a final concentration of 10 mg/ml. The mixture was purged with nitrogen, followed by sonication until this mixture was clear. The pregnenolone/PC micelles were mixed with the cholesterol/PC micelles such that the cholesterol concentration is at 0 mM or at 0.32 mM, and the radioactive pregnenolone concentration is at 1 μM (specific activity 20 Ci/mmol).

[2] = target: T2, HisACAT1/FLAG (recombinant hACAT1) (Homo sapiens, UniProt P35610, M1L); assay: Ligand binding by change in intrinsic (tryptophan) fluorescence of HisACAT1/FLAG; settings: for maximal increase in fluorescence peak height with respect to unliganded ACAT1 protein: excitation 295 nm, peak 330 nm
T2 construct: hACAT1 contains 550 amino acids; made in house
T2 sequence (P35610 1-550 M1L): T1 sequence (P35610 1-550 M1L)
Source text: Fluorescence measurements were generated using an ISS PC1 photocounting fluorescence spectrophotometer (model 90095). This instrument has continuously reproducible slits ranging from 0.4 to 32 nm band-pass. The excitation slit width was set at 2 nm. The wavelength for excitation was set at 295 nm in order to minimize the contribution of tyrosine residues to the fluorescence. Purified HisACAT1/FLAG was concentrated using 30K AMICON centrifugal filters such that the final concentration of the protein was 100-200 ng/μL (1.5-3 μM). Purified protein was stored at −80° C. until used. Unless stated otherwise, the fluorescence measurements were performed at pH 7.8 with 50 mM potassium phosphate, 0.5M KCl, and 8.13 mM CHAPS. Sterol (cholesterol, epicholesterol, coprostanol, and epicoprostanol) was prepared as CHAPS/PC/sterol mixed micelles (with CHAPS at 8.13 mM, PC at 4 mM, and with varying concentrations of sterols as indicated) and stored at 20° C. in the dark until usage. The fatty acyl-CoAs were dissolved in 20 mM sodium acetate at pH 6.4 as a 2 mM stock and stored at −80° C. until used. Before the experiment started, all reagents were kept on ice in the dark. To begin the experiment, 50 μL of mixed micelles without or with sterols was added into a HELLMA microcuvette with 3 mm light path. Twenty-five microliters of ACAT1 protein (in 8.13 mM CHAPS and 0.5 M KCl) was then added and rapidly mixed. Fluorescence was monitored within 15 seconds of adding the enzyme. The sample compartment of the instrument was maintained at 20° C. The fluorescence emission spectrum was scanned in 2 minutes between 310 and 410 nm. The differences in fluorescence intensity at 10 intervals within 325-335 nm were averaged in order to calculate the ΔF value between the ligated protein vs that of the unligated protein.
Binding studies were subsequently conducted by monitoring the effect of increasing concentrations of oleoyl-CoA on the intrinsic fluorescence of HisACAT1/FLAG. […] However, the maximal change in the peak of the spectrum was much smaller (5% with respect to the unliganded protein). […] The data was analyzed for a simple bimolecular dissociation equilibrium using the PRISM program.
Binding experiments were subsequently performed by monitoring the effect of increasing concentrations of cholesterol, from 10 to 600 μM, on the intrinsic fluorescence of HisACAT1/FLAG. […] It was estimated that the cholesterol concentration that caused half-maximal spectral change was 35 μM. […] The changes in the intrinsic fluorescence of ACAT1 caused by cholesterol, epicholesterol, coprostanol, or epicoprostanol as the ligand were also compared.

[3] = test system: amyloid precursor protein (APP); settings: cited from earlier work
[4] = target: T3, histidine-tagged recombinant human ACAT2 (Homo sapiens, UniProt O75908); assay: Pregnenolone esterification in mixed micelles, ACAT2 as enzyme source; type: biochemical; settings: ACAT2; for activation of pregnenolone esterification by sterol: sterol at 0.32 mM, 1 μM [3H]-pregnenolone
T3 construct: made in house; partially purified on a nickel column
T3 sequence (O75908 1-522): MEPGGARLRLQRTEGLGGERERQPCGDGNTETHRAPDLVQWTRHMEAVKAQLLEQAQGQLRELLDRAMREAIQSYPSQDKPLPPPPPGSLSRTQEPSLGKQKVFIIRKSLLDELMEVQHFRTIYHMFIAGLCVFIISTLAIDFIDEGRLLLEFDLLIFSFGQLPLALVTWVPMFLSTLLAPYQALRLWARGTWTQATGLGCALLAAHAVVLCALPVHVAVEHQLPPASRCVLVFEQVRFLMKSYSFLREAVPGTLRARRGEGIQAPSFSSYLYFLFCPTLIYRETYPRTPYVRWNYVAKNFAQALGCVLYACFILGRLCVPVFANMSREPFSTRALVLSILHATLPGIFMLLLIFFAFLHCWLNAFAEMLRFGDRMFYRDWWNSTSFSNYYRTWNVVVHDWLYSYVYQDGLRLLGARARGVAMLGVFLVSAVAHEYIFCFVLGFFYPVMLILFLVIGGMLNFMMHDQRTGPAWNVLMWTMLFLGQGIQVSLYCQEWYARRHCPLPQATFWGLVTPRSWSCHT
Source text: as §1, §2, §3

CC(C)CCC[C@@H](C)[C@H]1CC[C@H]2[C@@H]3[C@H](O)C=C4C[C@@H](O)CC[C@]4(C)[C@H]3CC[C@]12C [7-alpha-OH-cholesterol]
activation of pregnenolone esterification by sterol ([1]; ACAT1): least activation

CC(C)CCC[C@@H](C)[C@H]1CC[C@H]2[C@@H]3CC=C4C[C@H](O)CC[C@]4(C)[C@H]3CC[C@]12C [Epi-cholesterol]
maximal increase in fluorescence peak height with respect to unliganded ACAT1 protein [2]: much smaller than those caused by cholesterol | concentration that caused half-maximal spectral change ([2]; ligand 10 to 600 μM): too small to derive a reliable binding curve | activation of pregnenolone esterification by sterol ([1]; ACAT1): much less efficiently than sitosterol

CCCCCCCCCCCCCCCCCC(=O)SCCNC(=O)CCNC(=O)[C@H](O)C(C)(C)COP(=O)(O)OP(=O)(O)OC[C@H]1O[C@@H](n2cnc3c(N)ncnc32)[C@H](O)[C@@H]1OP(=O)(O)O [stearoyl-CoA]
maximal increase in fluorescence peak height with respect to unliganded ACAT1 protein [2]: 5% | dissociation constant ([2]; simple bimolecular dissociation equilibrium, PRISM): too small to derive a reliable dissociation constant

CC(C)CCCC(C)C1CCC2C3CC=C4CC(O)CCC4(C)C3CCC12C (single isomer, unassigned) [enantiomeric (ent-)cholesterol]
activation of pregnenolone esterification by sterol ([1]; ACAT1): much less efficiently than sitosterol

C[C@]12CC[C@H](O)CC1=CC[C@@H]1[C@@H]2CC[C@]2(C)C(=O)CC[C@@H]12 [DHEA, dihydroepiandrosterone]
ACAT1 substrate activity ([1]; absence of cholesterol): did not exhibit ACAT substrate activity | ACAT1 substrate activity ([1]; presence of excess cholesterol (0.32 mM)): exhibited significant substrate activity | apparent Km as ACAT1 substrate ([1]; with cholesterol present in vitro (0.32 mM)): too high to be measurable

CCCCCCCC[C@H](SCCCCCC)C(=O)Nc1c(SC)cc(C)nc1SC [CP113818]
full-length human APP content ([3]; animal model for AD): did not cause a reduction | processing of APP ([3]; animal models for AD): inhibit the processing of both human amyloid precursor protein (APP) and mouse APP

CC(C)CCC[C@@H](C)[C@H]1CC[C@H]2[C@@H]3CC=C4C[C@@H](O)CC[C@]4(C)[C@H]3CC[C@]12C [cholesterol]
maximal increase in fluorescence peak height with respect to unliganded ACAT1 protein [2]: up to 35% | pEC50 ([2]; ligand 10 to 600 μM, read-out: concentration that caused half-maximal spectral change): 4.46 | activation of pregnenolone esterification ([1]; ACAT1, cholesterol added to assay mixture): more than 100 fold | activation of pregnenolone esterification by sterol ([1]; ACAT1): maximal activation | activation of pregnenolone esterification ([4]; cholesterol added to assay mixture): more than 100 fold | activation of pregnenolone esterification by sterol [4]: maximal activation

CC(C)CC[C@@H](O)[C@@H](C)[C@H]1CC[C@H]2[C@@H]3CC=C4C[C@@H](O)CC[C@]4(C)[C@H]3CC[C@]12C [22R-hydroxy-cholesterol]
activation of pregnenolone esterification by sterol ([1]; ACAT1): least activation

CC[C@H](CC[C@@H](C)[C@H]1CC[C@H]2[C@@H]3CC=C4C[C@@H](O)CC[C@]4(C)[C@H]3CC[C@]12C)C(C)C [Sitosterol]
activation of pregnenolone esterification by sterol ([1]; ACAT1): not as efficiently as cholesterol | activation of pregnenolone esterification by sterol [4]: only slightly activated

CC(C)[C@@H](C)/C=C/[C@@H](C)[C@H]1CC[C@H]2C3=CC=C4C[C@@H](O)CC[C@]4(C)C3=CC[C@]12C [dehydroergosterol]
activation of pregnenolone esterification by sterol ([1]; ACAT1): much less efficiently than sitosterol

Reference: patent US8673587B2, “Methods for identifying allosteric and other novel acyl-coenzyme A:cholesterol acyltransferase inhibitors” (Trustees of Dartmouth College, priority 2010, dated 2014)
